Experimental data as given in the supplement of paper PMC11368000.

Key:
Conditions in all cases: exposure time: 90 min
[1] = test system: 1518 (donor line of iPSC-derived cardiomyocytes); assay: POD (EC10) for decrease in total cell number (cytotoxicity) vs vehicle; higher = less potent (higher point of departure)
Procedure: (§1)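 Human iPSC-derived cardiomyocytes from 16 donors were exposed for 90 min at 37 °C to each PFAS at 0.1, 1, 10 and 100 µM in 0.5% DMSO, 384-well plates. Kinetic Ca2+ flux (FLIPR) and Hoechst nuclei counts were normalised to vehicle wells and fitted with a hierarchical Bayesian Hill model to give donor-specific PODs: EC05 for beat-rate increase or decrease and for decay-to-rise ratio increase (QT proxy), EC95 for peak-frequency loss (asystole), EC10 for total cell number loss. 0.03 µM is the lower bound.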

[2] = test system: 1392 (donor line of iPSC-derived cardiomyocytes); assay: as above
Procedure: as §1

[3] = test system: 1434 (donor line of iPSC-derived cardiomyocytes); assay: as above
Procedure: as §1

[4] = test system: 30145 (donor line of iPSC-derived cardiomyocytes); assay: as above
Procedure: as §1

[5] = test system: 30171 (donor line of iPSC-derived cardiomyocytes); assay: POD (EC95) for loss of peak frequency (asystole) vs vehicle; higher = less potent (higher point of departure)
Procedure: as §1

[6] = test system: 20084 (donor line of iPSC-derived cardiomyocytes); assay: as above
Procedure: as §1

[7] = test system: 1518; assay: as above
Procedure: as §1

[8] = test system: 1392; assay: as above
Procedure: as §1

[9] = test system: 1535 (donor line of iPSC-derived cardiomyocytes); assay: as above
Procedure: as §1

[10] = test system: 1368 (donor line of iPSC-derived cardiomyocytes); assay: as above
Procedure: as §1

[11] = test system: 1434; assay: as above
Procedure: as §1

[12] = test system: 20032 (donor line of iPSC-derived cardiomyocytes); assay: as above
Procedure: as §1

[13] = test system: 1083 (donor line of iPSC-derived cardiomyocytes); assay: as above
Procedure: as §1

[14] = test system: 11235 (donor line of iPSC-derived cardiomyocytes); assay: as above
Procedure: as §1

[15] = test system: 1565 (donor line of iPSC-derived cardiomyocytes); assay: as above
Procedure: as §1

[16] = test system: 1531 (donor line of iPSC-derived cardiomyocytes); assay: as above
Procedure: as §1

[17] = test system: 1516 (donor line of iPSC-derived cardiomyocytes); assay: as above
Procedure: as §1

[18] = test system: 1118 (donor line of iPSC-derived cardiomyocytes); assay: as above
Procedure: as §1

[19] = test system: 30145; assay: as above
Procedure: as §1

[20] = test system: 1309 (donor line of iPSC-derived cardiomyocytes); assay: as above
Procedure: as §1

SMILES: O=C(O)C(F)(F)OC(F)(F)C(F)(F)OC(F)(F)C(F)(F)OC(F)(F)C(F)(F)C(F)(F)C(F)(F)F [Perfluoro-3,6,9-trioxatridecanoic_acid]
- POD vs vehicle [1]: > 100 µM
- POD vs vehicle [2]: > 100 µM
- POD vs vehicle [3]: 33.3 µM
- POD vs vehicle [4]: > 100 µM
- POD vs vehicle [5]: 73 µM
- POD vs vehicle [6]: > 100 µM
- POD vs vehicle [7]: > 100 µM
- POD vs vehicle [8]: > 100 µM
- POD vs vehicle [9]: > 100 µM
- POD vs vehicle [10]: > 100 µM
- POD vs vehicle [11]: 89.3 µM
- POD vs vehicle [12]: > 100 µM
- POD vs vehicle [13]: 79.4 µM
- POD vs vehicle [14]: 92.2 µM
- POD vs vehicle [15]: > 100 µM
- POD vs vehicle [16]: 11.4 µM
- POD vs vehicle [17]: 84.8 µM
- POD vs vehicle [18]: 63.7 µM
- POD vs vehicle [19]: > 100 µM
- POD vs vehicle [20]: > 100 µM

SMILES: O=C(O)C(F)(F)C(F)(F)C(F)(F)C(F)(F)C(=O)O [Octafluoroadipic_acid]
- POD vs vehicle [2]: 54.6 µM
- POD vs vehicle [3]: 23.3 µM
- POD vs vehicle [4]: > 100 µM
- POD vs vehicle [5]: > 100 µM
- POD vs vehicle [6]: > 100 µM
- POD vs vehicle [7]: > 100 µM
- POD vs vehicle [8]: > 100 µM
- POD vs vehicle [9]: > 100 µM
- POD vs vehicle [10]: > 100 µM
- POD vs vehicle [11]: > 100 µM
- POD vs vehicle [12]: > 100 µM
- POD vs vehicle [13]: > 100 µM
- POD vs vehicle [14]: > 100 µM
- POD vs vehicle [15]: > 100 µM
- POD vs vehicle [16]: > 100 µM
- POD vs vehicle [17]: > 100 µM
- POD vs vehicle [18]: > 100 µM
- POD vs vehicle [19]: > 100 µM
- POD vs vehicle [20]: > 100 µM

SMILES: CC(O)C(F)(F)C(F)(F)F (centres undefined) [1-Pentafluoroethylethanol]
- POD vs vehicle [1]: > 100 µM
- POD vs vehicle [2]: > 100 µM
- POD vs vehicle [3]: > 100 µM
- POD vs vehicle [4]: > 100 µM
- POD vs vehicle [5]: > 100 µM
- POD vs vehicle [6]: > 100 µM
- POD vs vehicle [7]: > 100 µM
- POD vs vehicle [8]: > 100 µM
- POD vs vehicle [9]: > 100 µM
- POD vs vehicle [10]: > 100 µM
- POD vs vehicle [11]: > 100 µM
- POD vs vehicle [12]: > 100 µM
- POD vs vehicle [13]: > 100 µM
- POD vs vehicle [14]: > 100 µM
- POD vs vehicle [15]: > 100 µM
- POD vs vehicle [16]: > 100 µM
- POD vs vehicle [17]: > 100 µM
- POD vs vehicle [18]: > 100 µM
- POD vs vehicle [19]: > 100 µM
- POD vs vehicle [20]: > 100 µM

SMILES: O=C(O)C(F)(F)C(F)(F)C(F)(F)C(F)(F)F [Perfluoropentanoic_acid]
- POD vs vehicle [1]: > 100 µM
- POD vs vehicle [2]: > 100 µM
- POD vs vehicle [3]: > 100 µM
- POD vs vehicle [4]: > 100 µM
- POD vs vehicle [5]: > 100 µM
- POD vs vehicle [6]: > 100 µM
- POD vs vehicle [7]: > 100 µM
- POD vs vehicle [8]: > 100 µM
- POD vs vehicle [9]: > 100 µM
- POD vs vehicle [10]: > 100 µM
- POD vs vehicle [11]: > 100 µM
- POD vs vehicle [12]: > 100 µM
- POD vs vehicle [13]: > 100 µM
- POD vs vehicle [14]: > 100 µM
- POD vs vehicle [15]: > 100 µM
- POD vs vehicle [16]: > 100 µM
- POD vs vehicle [17]: > 100 µM
- POD vs vehicle [18]: > 100 µM
- POD vs vehicle [19]: > 100 µM
- POD vs vehicle [20]: > 100 µM

SMILES: OCC(F)(F)C(F)(F)C(F)(F)CO [Hexafluoroamylene_glycol]
- POD vs vehicle [1]: > 100 µM
- POD vs vehicle [2]: > 100 µM
- POD vs vehicle [3]: > 100 µM
- POD vs vehicle [4]: > 100 µM
- POD vs vehicle [5]: > 100 µM
- POD vs vehicle [6]: > 100 µM
- POD vs vehicle [7]: > 100 µM
- POD vs vehicle [8]: > 100 µM
- POD vs vehicle [9]: > 100 µM
- POD vs vehicle [10]: > 100 µM
- POD vs vehicle [11]: > 100 µM
- POD vs vehicle [12]: > 100 µM
- POD vs vehicle [13]: > 100 µM
- POD vs vehicle [14]: > 100 µM
- POD vs vehicle [15]: > 100 µM
- POD vs vehicle [16]: > 100 µM
- POD vs vehicle [17]: > 100 µM
- POD vs vehicle [18]: > 100 µM
- POD vs vehicle [19]: > 100 µM
- POD vs vehicle [20]: > 100 µM

SMILES: NC(=O)C(F)(F)C(F)(F)C(F)(F)C(F)(F)C(N)=O [Octafluoroadipamide]
- POD vs vehicle [1]: > 100 µM
- POD vs vehicle [2]: > 100 µM
- POD vs vehicle [3]: > 100 µM
- POD vs vehicle [4]: > 100 µM
- POD vs vehicle [5]: > 100 µM
- POD vs vehicle [6]: > 100 µM
- POD vs vehicle [7]: > 100 µM
- POD vs vehicle [8]: > 100 µM
- POD vs vehicle [9]: > 100 µM
- POD vs vehicle [10]: > 100 µM
- POD vs vehicle [11]: > 100 µM
- POD vs vehicle [12]: > 100 µM
- POD vs vehicle [13]: > 100 µM
- POD vs vehicle [14]: > 100 µM
- POD vs vehicle [15]: > 100 µM
- POD vs vehicle [16]: > 100 µM
- POD vs vehicle [17]: > 100 µM
- POD vs vehicle [18]: > 100 µM
- POD vs vehicle [19]: > 100 µM
- POD vs vehicle [20]: > 100 µM

SMILES: OCC(F)(F)OC(F)(F)C(F)(F)OC(F)(F)C(F)(F)OC(F)(F)F [Fluorinated_triethylene_glycol_monomethyl_ether]
- POD vs vehicle [2]: 2.04 µM
- POD vs vehicle [4]: > 100 µM
- POD vs vehicle [5]: > 100 µM
- POD vs vehicle [6]: > 100 µM
- POD vs vehicle [7]: > 100 µM
- POD vs vehicle [8]: > 100 µM
- POD vs vehicle [9]: > 100 µM
- POD vs vehicle [10]: > 100 µM
- POD vs vehicle [11]: > 100 µM
- POD vs vehicle [12]: > 100 µM
- POD vs vehicle [13]: > 100 µM
- POD vs vehicle [14]: > 100 µM
- POD vs vehicle [15]: > 100 µM
- POD vs vehicle [16]: > 100 µM
- POD vs vehicle [17]: > 100 µM
- POD vs vehicle [18]: 9.61 µM
- POD vs vehicle [19]: > 100 µM
- POD vs vehicle [20]: > 100 µM

SMILES: OCC(F)(F)C(F)(F)C(F)(F)C(F)(F)C(F)(F)C(F)(F)F [6:1 Fluorotelomer alcohol]
- POD vs vehicle [2]: > 100 µM
- POD vs vehicle [3]: 13.1 µM
- POD vs vehicle [4]: > 100 µM
- POD vs vehicle [5]: 80.8 µM
- POD vs vehicle [6]: > 100 µM
- POD vs vehicle [7]: > 100 µM
- POD vs vehicle [8]: > 100 µM
- POD vs vehicle [9]: > 100 µM
- POD vs vehicle [10]: > 100 µM
- POD vs vehicle [11]: 75.4 µM
- POD vs vehicle [12]: > 100 µM
- POD vs vehicle [13]: 84.3 µM
- POD vs vehicle [14]: 70.2 µM
- POD vs vehicle [15]: > 100 µM
- POD vs vehicle [16]: > 100 µM
- POD vs vehicle [17]: > 100 µM
- POD vs vehicle [18]: 1.75 µM
- POD vs vehicle [19]: > 100 µM
- POD vs vehicle [20]: > 100 µM

SMILES: CN(CCO)S(=O)(=O)C(F)(F)C(F)(F)C(F)(F)C(F)(F)C(F)(F)C(F)(F)C(F)(F)C(F)(F)F [N-Methyl-N-(2-hydroxyethyl)perfluorooctanesulfonamide]
- POD vs vehicle [1]: > 100 µM
- POD vs vehicle [2]: > 100 µM
- POD vs vehicle [3]: > 100 µM
- POD vs vehicle [4]: > 100 µM
- POD vs vehicle [5]: 69.7 µM
- POD vs vehicle [6]: > 100 µM
- POD vs vehicle [7]: > 100 µM
- POD vs vehicle [8]: > 100 µM
- POD vs vehicle [9]: > 100 µM
- POD vs vehicle [10]: > 100 µM
- POD vs vehicle [11]: > 100 µM
- POD vs vehicle [12]: > 100 µM
- POD vs vehicle [13]: 65 µM
- POD vs vehicle [14]: > 100 µM
- POD vs vehicle [15]: > 100 µM
- POD vs vehicle [16]: > 100 µM
- POD vs vehicle [17]: > 100 µM
- POD vs vehicle [19]: > 100 µM
- POD vs vehicle [20]: > 100 µM

SMILES: O=C(O)C(F)(F)C(F)(F)C(F)(F)C(F)(F)C(F)(F)C(F)(F)F [Perfluoroheptanoic_acid]
- POD vs vehicle [1]: 23.6 µM
- POD vs vehicle [2]: > 100 µM
- POD vs vehicle [4]: > 100 µM
- POD vs vehicle [5]: > 100 µM
- POD vs vehicle [6]: > 100 µM
- POD vs vehicle [7]: > 100 µM
- POD vs vehicle [8]: > 100 µM
- POD vs vehicle [9]: > 100 µM
- POD vs vehicle [10]: > 100 µM
- POD vs vehicle [11]: > 100 µM
- POD vs vehicle [12]: > 100 µM
- POD vs vehicle [13]: > 100 µM
- POD vs vehicle [14]: > 100 µM
- POD vs vehicle [15]: > 100 µM
- POD vs vehicle [16]: > 100 µM
- POD vs vehicle [17]: > 100 µM
- POD vs vehicle [18]: > 100 µM
- POD vs vehicle [19]: > 100 µM
- POD vs vehicle [20]: > 100 µM
